Read-outs that look alike come from different tables or passages of the source.
Tests used:
Test in all cases: biochemical
[1] = target: T1, MMP-1 (Homo sapiens, UniProt P03956); conditions: read-out: MMP-1 IC50
T1 construct: made in house; host or cells: transfected HT-1080 cells (provided by Dr. Harold Welgus, Washington University)
T1 sequence (P03956 100-469): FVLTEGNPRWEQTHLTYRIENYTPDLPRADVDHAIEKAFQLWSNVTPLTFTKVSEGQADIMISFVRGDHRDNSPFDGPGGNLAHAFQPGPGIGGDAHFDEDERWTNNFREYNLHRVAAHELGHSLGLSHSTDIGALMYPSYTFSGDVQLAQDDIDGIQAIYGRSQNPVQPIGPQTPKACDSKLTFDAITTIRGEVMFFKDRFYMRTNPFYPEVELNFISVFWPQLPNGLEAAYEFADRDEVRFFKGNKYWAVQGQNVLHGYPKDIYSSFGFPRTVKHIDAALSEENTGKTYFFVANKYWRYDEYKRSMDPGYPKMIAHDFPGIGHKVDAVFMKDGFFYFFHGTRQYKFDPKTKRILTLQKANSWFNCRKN
In short: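 APMA- or trypsin-activated human MMPs (MMP-1 from transfected HT-1080 cells, MMP-2 from transfected cells) preincubated with inhibitor in 1% DMSO at room temperature, then 4 μM MCA-Pro-Leu-Gly-Leu-Dpa-Ala-Arg-NH2 added in Tris/NaCl/CaCl2 buffer pH 7.5. IC50 from fluorescence reduction versus inhibitor concentration.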

[2] = target: T2, MMP-13 (Homo sapiens, UniProt P45452); conditions: recombinant human MMP-13, MCA peptide substrate 4 μM, pH 7.5, room temperature; read-out: MMP-13 IC50
T2 construct: made in house; host or cells: baculovirus / insect cells
In short: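 APMA- or trypsin-activated enzymes were preincubated with inhibitor for 5 min at room temperature, then the fluorogenic substrate MCA-Pro-Leu-Gly-Leu-Dpa-Ala-Arg-NH2 was added to a final 4 μM.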

[3] = target: T3, MMP-2 (Homo sapiens, UniProt P08253); conditions: recombinant human MMP-2, MCA peptide substrate 4 μM, pH 7.5, room temperature; read-out: MMP-2 IC50
T3 construct: made in house; provided by Dr. Gregory Goldberg, Washington University
T3 sequence (P08253 110-660): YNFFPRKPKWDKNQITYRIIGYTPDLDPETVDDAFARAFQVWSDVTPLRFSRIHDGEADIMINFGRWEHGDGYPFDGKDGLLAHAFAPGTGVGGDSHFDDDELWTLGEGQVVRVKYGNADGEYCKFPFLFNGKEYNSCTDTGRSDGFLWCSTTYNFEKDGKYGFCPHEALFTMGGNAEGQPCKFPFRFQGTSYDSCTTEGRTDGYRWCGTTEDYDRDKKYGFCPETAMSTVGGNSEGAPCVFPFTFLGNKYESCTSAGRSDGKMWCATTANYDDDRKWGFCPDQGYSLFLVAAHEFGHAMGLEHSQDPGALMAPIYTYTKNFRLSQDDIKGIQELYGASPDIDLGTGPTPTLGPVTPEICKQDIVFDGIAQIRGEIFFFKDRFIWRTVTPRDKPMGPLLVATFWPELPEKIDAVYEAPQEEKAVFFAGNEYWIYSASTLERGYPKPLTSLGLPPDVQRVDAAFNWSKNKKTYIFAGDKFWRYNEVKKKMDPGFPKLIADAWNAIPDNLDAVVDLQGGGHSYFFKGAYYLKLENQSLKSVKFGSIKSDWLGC
In short: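 Assay buffer 100 mM Tris-HCl, 100 mM NaCl, 10 mM CaCl2, pH 7.5. Activated MMP + inhibitor, 5 min RT; then methoxycoumarin peptide substrate, 4 μM final. Readout fluorescence; IC50 calculated.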

[4] = recombinant human MMP-1, MCA peptide substrate 4 μM, pH 7.5, room temperature

Structure (SMILES)	IC50 [1, 4]	IC50 [2]	IC50 [3]	IC50 [1]
CCc1ccc(C(=O)C2CCN(c3ccc(S(=O)(=O)C4(C(=O)NO)CCOCC4)cc3)CC2)cc1 [Example 733]	> 10 µM	0.0016 µM	0.27 µM	–
O=C(NO)C1(S(=O)(=O)c2ccc(Oc3ccc(OC(F)(F)F)cc3)cc2)CCN(C(=S)NCCN2CCOCC2)CC1 [Example 199]	3 µM	0.0002 µM	< 0.0001 µM	–
O=C(NO)C1(S(=O)(=O)c2ccc(N3CCC(SC4CCCCC4)CC3)cc2)CCOCC1 [Example 634]	–	0.0044 µM	0.0607 µM	> 10 µM
CN1CCCN(C2CCN(c3ccc(S(=O)(=O)C4(C(=O)NO)CCOCC4)cc3)CC2)CC1 [Example 807]	> 10 µM	0.2 µM	1.4 µM	–
O=C(CNCCO)N1CCC(C(=O)NO)(S(=O)(=O)c2ccc(Oc3ccc(C(F)(F)F)cc3)cc2)CC1 [Example 321]	> 10 µM	0.0005 µM	0.0003 µM	–
O=C(NO)C1(S(=O)(=O)c2ccc(N3CCCC3)cc2)CCSCC1 [Example 155]	> 10 µM	0.13 µM	0.24 µM	–
COc1ccc(C(=O)C2CCN(c3ccc(S(=O)(=O)C4(C(=O)NO)CCN(C(=O)OCc5ccccc5)CC4)cc3)CC2)cc1 [Example 435]	> 10 µM	0.0059 µM	1.5 µM	–
CC1CC(C)CN(C(=O)C2CCN(c3ccc(S(=O)(=O)C4(C(=O)NO)CCN(C(=O)Cn5cncn5)CC4)cc3)CC2)C1 (stereo not drawn) [Example 311]	> 10 µM	0.12 µM	> 10 µM	–
CS(=O)(=O)N1CCC(C(=O)NO)(S(=O)(=O)c2ccc(Oc3ccc(OC(F)(F)F)cc3)cc2)CC1 [Example 273, N-Hydroxy-1-(methylsulfonyl)-4-[[4-[4-sulfonyl]-(trifluoromethoxy)phenoxy]phenyl]-4-piperidinecarboxamide]	> 10 µM	0.0003 µM	0.0001 µM	–
CONCC(=O)N1CCC(C(=O)NO)(S(=O)(=O)c2ccc(N3CCC(C(=O)N4CC(C)CC(C)C4)CC3)cc2)CC1 (stereo not drawn) [Example 312]	> 10 µM	0.2 µM	> 10 µM	–
O=C(c1ccco1)N1CCC(C(=O)NO)(S(=O)(=O)c2ccc(N3CCC(OCc4ccc(F)cc4C(F)(F)F)CC3)cc2)CC1 [Example 434]	> 10 µM	0.19 µM	3.7 µM	–
O=C(CCCCNCCO)N1CCC(C(=O)NO)(S(=O)(=O)c2ccc(Oc3ccc(C(F)(F)F)cc3)cc2)CC1 [Example 337]	> 10 µM	0.0027 µM	0.0002 µM	–
CC(C)c1ccc(Oc2ccc(S(=O)(=O)C3(C(=O)NO)CCSCC3)cc2)cc1 [Example 148]	> 10 µM	0.0025 µM	0.0037 µM	–
O=C(Nc1c(Cl)cccc1Cl)N1CCC(C(=O)NO)(S(=O)(=O)c2ccc(Oc3ccc(OC(F)(F)F)cc3)cc2)CC1 [Example 355]	7 µM	0.0004 µM	< 0.0001 µM	–
COCCN1CCC(C(=O)NO)(S(=O)(=O)c2ccc(N3CCC(OCc4ccc(F)cc4)CC3)cc2)CC1 [Example 448]	> 10 µM	0.0024 µM	0.54 µM	–
CCCC(=O)N1CCN(c2ccc(S(=O)(=O)C3(C(=O)NO)CCOCC3)cc2)CC1 [Example 590]	> 10 µM	0.121 µM	0.08 µM	–
O=C(NO)C1(S(=O)(=O)c2ccc(N3CCC(OCc4cccc(C(F)(F)F)c4)CC3)cc2)CCN(C2CC2)CC1 [Example 402]	> 10 µM	0.0158 µM	0.34 µM	–
CCOC(=O)CN1CCN(CC(=O)N2CCC(C(=O)NO)(S(=O)(=O)c3ccc(N4CCC(C(=O)N5CC(C)CC(C)C5)CC4)cc3)CC2)CC1 (stereo not drawn) [Example 305]	> 10 µM	0.0286 µM	> 10 µM	–
O=C(NO)C1(S(=O)(=O)c2ccc(N3CCC(n4c(=O)[nH]c5ccccc54)CC3)cc2)CCOCC1 [Example 211]	–	0.0114 µM	1.2 µM	> 10 µM
O=C(NO)C1(S(=O)(=O)c2ccc(Oc3ccc(OC(F)(F)F)cc3)cc2)CCSCC1 [Example 147]	7.7 µM	0.0004 µM	0.0002 µM	–
O=C(NO)C1(S(=O)(=O)c2ccc(N3CCC(OCc4ccc(F)cc4C(F)(F)F)CC3)cc2)CCN(C2CC2)CC1 [Example 414]	> 10 µM	0.0505 µM	1.5 µM	–
CC(=O)Nc1ccc(Oc2ccc(S(=O)(=O)C3(C(=O)NO)CCN(C4CC4)CC3)cc2)cc1 [Example 378]	0.2 µM	0.0017 µM	0.0003 µM	–

More lines, main results first:

IC50 [1, 4]	IC50 [2]	IC50 [3]	Structure (SMILES)	IC50 [1]
> 10 µM	0.05 µM	0.285 µM	CCCOC1CCN(c2ccc(S(=O)(=O)C3(C(=O)NO)CCOCC3)cc2)CC1 [Example 168]	–
> 10 µM	0.02 µM	2.5 µM	O=C(NO)C1(S(=O)(=O)c2ccc(N3CCC(OCc4ccc(COCC5CCCCC5)cc4)CC3)cc2)CCOCC1 [Example 604]	–
> 10 µM	6.1 µM	> 10 µM	O=C(NO)C1(S(=O)(=O)c2ccc(N3CC4CC3CO4)cc2)CCOCC1 (stereo not drawn) [Example 492]	–
> 10 µM	6.7 µM	9 µM	O=C(NO)C1(S(=O)(=O)c2ccc(N3CC[C@@H](COCc4ccc(OC(F)(F)F)cc4)C3)cc2)CCOCC1 [Example 527]	–
> 10 µM	0.0186 µM	0.155 µM	O=C(NO)C1(S(=O)(=O)c2ccc(N3CCC(Oc4ccc(OC(F)(F)F)cc4)CC3)cc2)CCOCC1 [Example 480]	–
> 10 µM	0.16 µM	2 µM	O=C(NO)C1(S(=O)(=O)c2ccc(N3CCC(OCc4ccccn4)CC3)cc2)CCOCC1 [Example 578]	–
> 10 µM	0.0106 µM	2 µM	O=C(NO)C1(S(=O)(=O)c2ccc(N3CCC(OCc4ccc(COCC5CCCC5)cc4)CC3)cc2)CCOCC1 [Example 605]	–
> 10 µM	0.0045 µM	0.17 µM	CCC(C)OCc1ccc(COC2CCN(c3ccc(S(=O)(=O)C4(C(=O)NO)CCOCC4)cc3)CC2)cc1 (stereo not drawn) [Example 556]	–
> 10 µM	0.0024 µM	0.2 µM	O=C(NO)C1(S(=O)(=O)c2ccc(N3CCC(OCc4ccc(Cl)cc4)CC3)cc2)CCOCC1 [Example 170]	–
> 10 µM	0.075 µM	3.4 µM	CN(C)c1cccc(NC(=O)C2CCN(c3ccc(S(=O)(=O)C4(C(=O)NO)CCOCC4)cc3)CC2)c1 [Example 77]	–
> 10 µM	0.008 µM	0.0307 µM	O=C(NO)C1(S(=O)(=O)c2ccc(N3CCC(OCc4ccc(COc5ccccc5)cc4)CC3)cc2)CCOCC1 [Example 613]	–
> 10 µM	0.14 µM	0.8 µM	CC1CN(c2ccc(S(=O)(=O)C3(C(=O)NO)CCOCC3)cc2)CCN1c1ccccc1 (stereo not drawn) [Example 487]	–
> 10 µM	0.009 µM	1.3 µM	CCC(C)COCc1ccc(COC2CCN(c3ccc(S(=O)(=O)C4(C(=O)NO)CCOCC4)cc3)CC2)cc1 (stereo not drawn) [Example 601]	–
8.8 µM	0.0016 µM	0.0033 µM	O=C(NO)C1(S(=O)(=O)c2ccc(N3CCC(Oc4ccc5c(c4)OCO5)CC3)cc2)CCOCC1 [Example 644]	–
> 10 µM	0.0043 µM	0.0057 µM	Cc1ccc(OC2CCN(c3ccc(S(=O)(=O)C4(C(=O)NO)CCOCC4)cc3)CC2)cc1 [Example 619]	–
